Here are results for two compounds from patent publication US12569474B2, “Compositions and methods for treating anemia” (Akebia Therapeutics, Inc., priority 2013, dated 2026).

Data set [1] concerns EPO production in Hep3B cells. The experiment in a line: In Vitro EPO Induction Assay (secreted EPO immunoassay). In kind it is cell-based, human. Here is the method:
(§1) Materials and Methods: Cell Culture: Human hepatocellular carcinoma (Hep3B) cells were obtained from the American Type Culture Collection (ATCC, Mannassas, VA) and cultured according to ATCC recommendations. Cells were cultured at 37° C. in an atmosphere of 95% air and 5% C02 in a humidified incubator. Compound 13 was diluted to a stock concentration of 50 mM in DMSO (Sigma).
(§2) Cell Treatments: Hep3B cells were plated on 24 well plates. Subsets of Hep3B cultures were transfected with a HIF reporter plasmid (pHRE-luciferase) overnight. (See Sheta, et al., Oncogene. 2001 Nov. 15; 20(52):7624-34.) Cells were exposed to vehicle (1:1000 DMSO) or test Compound 13 at 50 m for 18 hours at 37° C. in an atmosphere of 95% air and 5% CO2 in a humidified incubator.
(§3) Analysis: After 48-hour culture, cell supernatants were subsequently collected, centrifuged at 15,000×g for 15 minutes at 4° C. to sediment debris.
In Vitro EPO Induction Assay: Secreted EPO levels were assayed by specific immunoassay (MesoScale Discovery, Gaithersburg, MD) in accordance with manufacturer's instructions.
(§4) Compound 13 was assayed in duplicate. Fold change over the vehicle control was calculated. Compound 13 was tested at a concentration of 50 m. […] Resulting values for the In Vitro EPO Induction Assay, and In Vitro HIF Prolyl Hydroxylase Inhibition Assay are shown in Table 1 and Table 2.

Another data set relates to HIF prolyl hydroxylase. Put plainly: In Vitro HIF Prolyl Hydroxylase Inhibition Assay (HRE luciferase reporter). In kind it is cell-based, human. Here is the method:
as §1, §2, §3
In Vitro HIF Prolyl Hydroxylase Inhibition Assay: Cell lysates were assayed using the dual luciferase reporter-assay (Promega, Madison, WI, USA). Observed firefly luciferase activity was normalized to a co-transfected Renilla luciferase.
as §4

Data set [2] concerns healthy male adults. Put plainly: Phase 1a single ascending dose (SAD) study, EPO response. In kind it is in vivo, human.
The test system of data set [3] is healthy male adults. Put plainly: Phase 1b multiple ascending dose (MAD) study, EPO response. In kind it is in vivo, human.
The next data set deals with healthy adult males. The experiment in a line: Phase I clinical trials in healthy adult males (overall). In kind it is in vivo, human. The text has this: This was a surprising result for a number of reasons. […] Thus, particularly with regard to patients having a disease or condition associated with kidney impairment, a person of skill in the art would not expect that administration of a compound provided herein could cause an increase in a patient's serum hemoglobin levels while also mimicking the diurnal variation of serum EPO levels in healthy individuals and without raising the patients' baseline serum EPO levels.

The subject of data set [4] is patients having anemia secondary to CKD. The experiment in a line: Compound 1 at 500 mg in patients having anemia secondary to CKD: EPO levels and half-life over 24 hours. In kind it is in vivo, human. The text has this: Current treatment of anemia associated with chronic kidney disease (CKD) with erythropoiesis-stimulating agents (ESAs) can lead to supraphysiological levels of circulating erythropoietin (EPO) that persist for days, a profile that may be associated with increased cardiovascular side effects and thromboembolic events. […] In a randomized double-blind, placebo-controlled Phase 2a trial, 93 patients with CKD stage 3, 4, or 5 (not on dialysis) received placebo or Compound 1 in the following dose groups: 240, 370, 500, or 630 mg once daily for 6 weeks. […]

Data set [5] concerns patients with CKD stage 3, 4, or 5 (not on dialysis). Put plainly: Randomized double-blind, placebo-controlled Phase 2a trial, 6 weeks. In kind it is in vivo, human. The text has this: Current treatment of anemia associated with chronic kidney disease (CKD) with erythropoiesis-stimulating agents (ESAs) can lead to supraphysiological levels of circulating erythropoietin (EPO) that persist for days, a profile that may be associated with increased cardiovascular side effects and thromboembolic events. […] In a randomized double-blind, placebo-controlled Phase 2a trial, 93 patients with CKD stage 3, 4, or 5 (not on dialysis) received placebo or Compound 1 in the following dose groups: 240, 370, 500, or 630 mg once daily for 6 weeks. […] Erythropoietin was measured at baseline, week 2, end of treatment and follow up.
In a randomized double-blind, placebo-controlled Phase 2a clinical trial, 93 patients with CKD stage 3, 4, or 5 (not on dialysis) received placebo or Compound 1 in the following dose groups: 240, 370, 500, or 630 mg once daily for 6 weeks. […] TIBC and serum iron levels were measured at baseline, week 2, week 4, end of treatment (week 6) and follow up.
In a randomized double-blind, placebo-controlled Phase 2a trial, 93 patients with CKD stage 3, 4, or 5 (not on dialysis) received placebo or Compound 1 in the following dose groups: 240, 370, 500, or 630 mg once daily for 6 weeks.

Data set [6] deals with patients with Stage 3 or 4 CKD. The experiment in a line: Phase 2a dose escalation study, 28 days. In kind it is in vivo, human. Here is the method: In a Phase 2a dose escalation study, 10 CKD patients received Compound 1 once daily for 28 days. Dosing began at 400 mg in CKD Stage 3 patients and 300 mg in CKD Stage 4 patients.
Data set [7] in a line: Clinical data obtained to date (summary over studies). In kind it is in vivo, human. The text has this:
Furthermore, this is achieved with a modest increase in the daily peak level of EPO, but with no increase in basal (pre-dose) levels (in a manner that mimics the physiologic diurnal response in healthy individuals).

Where [8] appears, read: 240, 370, 500, or 630 mg once daily for 6 weeks, all dose groups, ANOVA p<0.0001.

The structures appear in SMILES notation. Entries after “also recorded” stand apart in the source; their conditions may differ.

Regarding `NCCNC(=O)c1ncccc1O` [Compound 13, N-(2-aminoethyl)-3-hydroxy-pyridine-2-carboxamide], the “Mean [EPO]” value in data set [1] (Compound 13, 18 hours, assayed in duplicate, vehicle 3.0736) is recorded as 8.9137 mIU/mL. Further, in data set [1] (Compound 13, inactive if ≤1.0 fold over control), the “Fold Change (EPO, over vehicle control)” value worked out at 2.9001. Besides, the “EPO production (result in words)” value in data set [1] (vs DMSO vehicle) is given as “increase EPO production”. The “Mean HIF PH Inhibition Activity (Relative Luciferase)” value in the data set with HIF prolyl hydroxylase (Hep3B cells transfected with pHRE-luciferase, Compound 13 at 50 µM, firefly normalized to Renilla, vehicle 1) is on record as 3.6. In addition, the “HIF prolyl hydroxylase enzyme activity (result in words)” value in the data set with HIF prolyl hydroxylase (Hep3B cells, 50 µM, vs DMSO vehicle) is on record as “inhibit HIF prolyl hydroxylase enzyme activity”. In addition, the “Fold Change (HIF PH inhibition activity, over vehicle control)” value in the data set with HIF prolyl hydroxylase (Hep3B cells, Compound 13 at 50 µM, inactive if ≤1.0 fold over control) is 3.6.
`O=C(O)CNC(=O)c1ncc(-c2cccc(Cl)c2)cc1O` [Compound 1, {[5-(3-chlorophenyl)-3-hydroxypyridine-2-carbonyl]amino}acetic acid]: the “EPO increase compared to placebo” value with healthy male adults [2] (600 mg cohort, 8 hours, p=0.034) is “significant increase”. Further, the “EPO rise compared to placebo” value in the data set with healthy male adults [2] (900 and 1200 mg groups, 8, 12, 18, and 24 hours following dosing, p<0.01) is on record as “significant, dose-dependent rises”. Besides, in the data set with healthy male adults [3] (multiple ascending dose), the “Peak EPO concentration” value is given as “dose responsive increase”. Also, the “EPO concentration prior to the next morning dose” value with healthy male adults [3] (regardless of the dosing group) was “essentially returned to baseline”. In the data set with healthy adult males (Phase 1 studies), the “Rise in EPO relative to dose” value is reported as “proportionate to the dose”. Further, in the data set with healthy adult males (healthy adult males), the “Serum EPO levels after administration” value was “returned to approximately baseline levels within twenty-four hours” and the Serum hemoglobin levels entry is given as “able to increase serum hemoglobin levels”. Besides, in data set [4] (CKD patients vs healthy adult males), the “Half-life in patients with anemia secondary to CKD compared to healthy individuals” value was “approximately twice as long; also recorded: significantly longer”. Further, the “Time to return to baseline EPO levels” value in data set [4] (dose of 500 mg, patients having anemia secondary to CKD) is no more than 24 h. In data set [5] (setting [8]), the “HGB (hemoglobin) at Week 6 compared to baseline and to placebo” value is reported as “able to increase serum hemoglobin levels; also recorded: significantly increased HGB; also recorded: significantly increased hemoglobin levels”; the “TIBC at Week 6 compared to baseline and to placebo” value is “able to increase TIBC levels; also recorded: significantly increased TIBC”. The “TIBC dose relation at Week 6” value in data set [5] (240-630 mg once daily) is “dose-related increase in TIBC; also recorded: dose-related increase in total iron binding capacity”. Also, in [5] (Week 6), the “Serum iron levels relative to baseline” value is listed as “not associated with an increase in serum iron levels; also recorded: without increasing serum iron levels” and the “TSAT at Week 6” value was “decrease in TSAT”. For the same compound, the “Hepcidin expression at low doses” value in data set [5] (low doses, such as the 240 mg group, Week 6) is recorded as “not accompanied by a decrease in hepcidin expression”. Further, the “Serum levels of EPO over time” value in data set [5] (measured at baseline, week 2, end of treatment and follow up) is given as “did not increase significantly over time”. Moreover, the “Daily EPO levels in CKD patients” value in [5] (mimicking the physiologic diurnal response) is “moderate daily increases in EPO levels”. In data set [5] (prior to daily dose, 6 weeks), the “Basal (pre-dose) EPO levels” value was “without increasing basal (pre-dose) EPO levels”. In addition, the HGB dose response result in data set [5] (starting from the lowest dose (240 mg)) is given as “clear dose-responsive increase in HGB”. Further, the “Hemoglobin by Day 29” value in data set [6] (10 CKD Stage 3 and 4 patients, once daily 28 days, start 400 mg (Stage 3) or 300 mg (Stage 4), +100 mg steps, baseline 9.91 g/dL) stood at 10.54 g/dL. Further, the “Ferritin by Day 29” value in data set [6] (10 CKD Stage 3 and 4 patients, once daily 28 days, baseline 334.10 ng/mL) amounted to 271.70 ng/mL. For the same compound, in data set [6] (patients with Stage 3 or 4 CKD, 28 days), the Tolerability result is listed as “well-tolerated”. Also, in data set [7] (dose responsive changes), the Hepcidin and ferritin entry was “decreases in hepcidin and ferritin”; the “Total iron binding capacity” value is “increase in total iron binding capacity”. Besides, the “Baseline EPO” value in data set [7] (human, in vivo) is on record as “without increasing baseline EPO”. In addition, the “EPO levels (daily)” value in [7] (similar to the physiologic diurnal response) is “modest dose-proportional daily increases in EPO levels”.
